The values below come from article PMC3221659, “Targeting of Mitochondria-Endoplasmic Reticulum by Fluorescent Macrocyclic Compounds” (PLoS ONE, 2011).

Data set [1] concerns human breast cancer cells (MCF-7). Put plainly: MTT cytotoxicity assay, MCF-7. Format: cell-based. The conditions noted are these: MCF-7 cells; for IC50: Homo sapiens, MCF7, MTT, 48 h. The method, then: (§1) One of the key issues to consider a probe suitable for living cells use is its cellular toxicity. In this context, the cytotoxicity of the five synthesised macrocyclic compounds is assessed by a 3-(4,5-dimethylthiazol-2-yl)-2,5-diphenyltetrazolium bromide (MTT) assay. The cytotoxicity of the starting material 1,10-phenanthroline-2,9-dicarbaldehyde is measured by MTT assay for comparison. In this quantitative colorimetric assay, the amount of MTT reduced by cells to its formazan derivative is quantified spectroscopically at 570 nm and is considered equivalent to the number of viable cells. The cytotoxicity of the referred compounds is evaluated using human breast cancer cells (MCF-7), non-cancerous human dermal fibroblasts (NHDF) and human adult dermal skin fibroblasts (designated P14) obtained from the breast biopsy specimen of a person diagnosed with breast cancer. All cells have been exposed to the six different compounds in five concentrations ranging from 10 nM to 100 µM during a period of exposition of 48 h.
(§2) Cell viability was studied quantifying the extent of the reduction of 3-(4,5-dimethylthiazol-2-yl)-2,5-diphenyltetrazolium bromide (MTT) according to a previously described procedure. Briefly, cells were seeded in 48-well plates (0.5×10^4 cells/well) in the culture medium containing FBS and after 48 h they were treated with five concentrations (10 nM and 100 nM, 1 µM, 10 µM and 100 µM) of the different compounds for 48 h, with untreated cells serving as control. At the end of incubation the media in wells were removed and replaced with fresh media and MTT solution and incubated at 37°C for 4 h. Thereafter, media-containing MTT were removed and formazan crystals were dissolved and absorbance was recorded in Biorad 550 microplate reader at 570 nm. The extent of cell death was expressed as the percentage of cell viability in comparison with control cells.
(§3) All experiments were performed in triplicate. The IC50 values were calculated from the obtained dose-response curve by sigmoid fitting. Graphical results of citotoxicity were expressed as the average values ± SEM (standard error of mean). Comparison among multiple groups was analyzed by using a one-way ANOVA followed by Dunnet's post hoc tests to determine significant differences among the means. Difference between groups was considered statistically significant at P<0.05.
In general terms: Tetrazolium assays rely on reduction of a dye to a coloured formazan, in cell work by metabolically active cells.

The test system of data set [2] is NHDF cells. Put plainly: Annexin V-FITC / PI flow cytometry, NHDF. The conditions noted are these: 10 µM, 48 h. Format: cell-based, human. The procedure: For this purpose, the fluorescein isothiocyanate (FITC)-conjugated annexin V - PI (propidium iodide) flow cytometry assay is employed, allowing the identification of apoptosis and necrosis. Thus, MCF-7 and NHDF cells are treated with two concentrations (10 nM and 10 µM) of each compound for 48 h. These concentrations are […], except for [32]phen2N4 on MCF-7 cells.
To detect apoptosis, cells were stained with propidium iodide (PI) and fluorescein isothiocyanate (FITC)-conjugated annexin V using an Annexin V-FITC Apoptosis Detection Kit (BD PharmingenTM). Briefly, cells were seeded in […] flasks in the culture medium containing FBS and after reaching approximated 90% confluence they were treated with two concentrations (10 nM and 10 µM) of each compound for 48 h, with untreated cells serving as control. At the end of incubation, cells were harvested by trypsin-EDTA treatment, washed twice with cold PBS and resuspended with 1× binding buffer (1 mL). […] After the addition of […] of 1× binding buffer, stained cells were subjected to fluorescence-activated cell sorter (FACS) analysis using a FACSCalibur flow cytometer. The FITC fluorescence was measured between 515 and 545 nm and the PI fluorescence between 564 and 606 nm. […]
A general note: Flow cytometry measures light scatter and fluorescence of single cells or particles in a stream.

The subject of data set [3] is human adult dermal skin fibroblasts (P14). Put plainly: MTT cytotoxicity assay, P14. The class given is cell-based. The conditions noted are these: P14 cells, 48 h; for IC50: Homo sapiens, Skin fibroblast; for reduction in cell viability (approximately 50%): 0.1 µM. The procedure: as §1, §2, §3
Data set [4] relates to non-cancerous human dermal fibroblasts (NHDF). Description: MTT cytotoxicity assay, NHDF. The class given is cell-based. Particulars: NHDF cells, 48 h. The procedure:
as §1, with “All cells have been exposed to the six different compounds in five concentrations ranging from 10 nM to 100 µM during a period of exposition of 48 h.” left out
Cell viability was studied quantifying the extent of the reduction of 3-(4,5-dimethylthiazol-2-yl)-2,5-diphenyltetrazolium bromide (MTT) according to a previously described procedure. […] Thereafter, media-containing MTT were removed and formazan crystals were dissolved and absorbance was recorded in Biorad 550 microplate reader at 570 nm. The extent of cell death was expressed as the percentage of cell viability in comparison with control cells. […]

The subject of another data set is MCF-7 cells. Description: Mitochondrial membrane potential by flow cytometry (CMXRos / MitoTracker Green), MCF-7. The class given is cell-based, human. Particulars: 10 µM, 48 h. An excerpt: (§4) In order to study the effects of the compounds in mitochondrial membrane potential (MMP) of MCF-7 and NHDF cells, flow cytometry assay was employed to monitor any fluorescence changes in MitoTracker Green™ and red fluorescence of chloromethyl-X-rosamine (CMXRos), treatment with the uncoupler 2,4-dinitrophenol (2,4-DNP) to collapse the MMP. While MitoTracker Green™ staining was relatively unaffected by changes in MMP, the CMXRos staining of mitochondria is sensitive to MMP [30]. Also, laser scanning confocal microscopy was employed to analyze changes in mitochondrial localization by treated cells with uncoupler 2,4-DNP and staining with MitoTracker Green™ and compounds.
(§5) The assessment of mitochondrial membrane potential was determined as described previously. Briefly, the cells were incubated with 200 nM of MitoTracker Green™ and 200 nM of Mitotracker Red (CMXRos) for 30 min prior to harvesting. The 2,4-dinitrophenol (DNP) was used as a mitochondrial uncoupler (300 µM, 2 h). The cells were treated with compounds concentration 10 µM for 48 h. The relative mitochondrial membrane potential was analyzed by flow cytometry by measuring the mean intensity of FL1 (green) and FL4 (red) channels. The FL4/FL1 ratio intensities of compounds treated and positive control (DNP) were compared and indicated if the compounds change the mitochondrial membrane potential of the cells.

Data set [5] relates to NHDF cells. Put plainly: Mitochondrial membrane potential by flow cytometry (CMXRos / MitoTracker Green), NHDF. Format: cell-based, human. The conditions noted are these: 10 µM, 48 h.
Text: as §4, §5

For data set [6], the system named is MCF-7, NHDF and P14 cells. Put plainly: Fluorescence and confocal microscopy: uptake and sub-cellular localization. The conditions noted are these: 10 nM and 100 µM over 48 h. Format: cell-based, human. The procedure:
The timescale of trafficking of these compounds and their sub-cellular localization have been subsequently examined in MCF-7, NHDF and P14 cells using fluorescence microscopy. The cells are mounting on 0.1 mm thick glass cover slips by withdrawal of the respectively growth medium.
The incubation times to test the ability compounds to penetrate into cells varied from 5 min to 48 h, and concentrations onto the cells were 10 nM and 100 µM by dissolving in appropriate medium. […] By analyzing each image recorded, all the compounds in all cells rapidly crossed the cell membrane (5 min) and induced a slight stain in the first minutes of incubation, depending on the type of cells. However, for incubation times longer than 30 min, it seems that this difference in the stained disappeared, thus appearing that the compounds were localized into an organelle of the cytoplasm.
Besides, the subcellular localization of the compounds has been confirmed by co-staining with MitoTracker™ (25 nM, 45 min of incubation) and ER-Tracker™ (100 nM, 30 min of incubation) probes in MCF-7, NHDF and P14 cells, with compound concentrations of 10 nM and 100 nM and for incubation times of 1 h.
After growth in the glass bottom culture dishes coated with collagen (1×10^4 cells/dish), the cells were incubated in the dark at 37°C with 10 nM of all the compounds and analyzed from 5 min to 48 h. […]

Bounds are passed on as bounds.

The IC50 is the concentration at which inhibition is half-maximal. `O=Cc1ccc2ccc3ccc(C=O)nc3c2n1` [1,10-phen, 1,10-phenanthroline-2,9-dicarbaldehyde, reference compound]: the IC50 in data set [1] is > 100 µM. In addition, the “percentage of late apoptotic cells” value in the data set with NHDF cells [2] was “about 20%”.

As for `CN1CCCNCc2cccc(n2)CNCCCN(C)CCCNCc2cccc(n2)CNCCC1` [Me2[28]py2N6], the IC50 in data set [1] was > 100 µM; in data set [3] it was 36.8 ± 4.68 µM; in data set [4], 69.7 ± 3.02 µM. Further, the “effect on mitochondrial membrane potential (red fluorescence, FL4/FL1) versus positive control 2,4-DNP” value in the data set on MCF-7 cells is listed as “decrease of red fluorescence”.

In the case of `c1cc2ccc3ccc4nc3c2nc1CNCCCCCCNC4` [[16]phenN2], the IC50 in data set [1] is > 100 µM. Moreover, in data set [3], the “reduction in cell viability (approximately 50%)” value is on record as “not observed”. Further, the “effect on mitochondrial membrane potential (FL4/FL1 ratio) versus positive control 2,4-DNP” value with NHDF cells [5] is given as “modify the MMP”. In addition, the “effect on mitochondrial membrane potential (red fluorescence, FL4/FL1) versus positive control 2,4-DNP” value with MCF-7 cells is reported as “decrease of red fluorescence”. In addition, in the data set with NHDF cells [2], the “percentage of late apoptotic cells” value was “about 20%”.

For `c1cc2ccc3ccc4nc3c2nc1CNCCNCCNCc1ccc2ccc3ccc(nc3c2n1)CNCCNCCNC4` [[30]phen2N6], the IC50 in data set [1] is > 100 µM.

Take `c1cc2ccc3ccc4nc3c2nc1CNCCCCCCNCc1ccc2ccc3ccc(nc3c2n1)CNCCCCCCNC4` [[32]phen2N4]: the IC50 in data set [1] was < 0.01 µM; in data set [3], 85.3 ± 1.79 µM; in data set [4], 78.9 ± 2.82 µM. Further, in data set [1] (10 nM to 10 µM), the cytotoxicity result is listed as “highly cytotoxic”. Besides, the “signs of cytotoxicity in microscopy” value in data set [6] is recorded as “no relevant signs of cytotoxicity”.

As to `c1cc2ccc3ccc4nc3c2nc1CN1CCCCCCN(C4)Cc2ccc3ccc4ccc(nc4c3n2)CN2CCCCCCN(Cc3ccc4ccc5ccc(nc5c4n3)C2)Cc2ccc3ccc4ccc(nc4c3n2)C1` [cryptphen], in data set [1], the IC50 is > 100 µM. Moreover, the “reduction in cell viability (approximately 50%)” value in data set [3] is on record as “not observed”. Moreover, the “effect on mitochondrial membrane potential (FL4/FL1 ratio) versus positive control 2,4-DNP” value with NHDF cells [5] is given as “modify the MMP”.
